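Method: 48-hour compound exposure of cells in 96-well plates, five concentrations, linear interpolation of endpoints. Here, GI50 denotes the concentration required for 50% inhibition of growth.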 Calls of active or inactive are those of the source. Cut-off read from the data, not from the text of the source: active = GI50 up to about 1.1 µM and inactive = higher.
Tests used:
Experiment in all cases: inhibition of tumour cell growth, NCI panel, 48 h
786-0 = test system: 786-0
A498 = test system: A498
A549 = test system: A549
ACHN = test system: ACHN
BT-549 = test system: BT-549
CAKI-1 = test system: CAKI-1
COLO 205 = test system: COLO 205
DU-145 = test system: DU-145
EKVX = test system: EKVX
HCC 2998 = test system: HCC 2998
HCT-116 = test system: HCT-116
HCT-15 = test system: HCT-15
HL-60 = test system: HL-60
HOP-62 = test system: HOP-62
Hs-578T = test system: Hs-578T
IGROV-1 = test system: IGROV-1
K562 = test system: K562
KM12 = test system: KM12
M14 = test system: M14
MCF7 = test system: MCF7
MDA-MB-231 = test system: MDA-MB-231
MDA-MB-435 = test system: MDA-MB-435
MDA-N = test system: MDA-N
MOLT-4 = test system: MOLT-4
NCI-H226 = test system: NCI-H226
NCI-H460 = test system: NCI-H460
OVCAR-4 = test system: OVCAR-4
OVCAR-5 = test system: OVCAR-5
OVCAR-8 = test system: OVCAR-8
PC-3 = test system: PC-3
RPMI-8226 = test system: RPMI-8226
RXF 393 = test system: RXF 393
SF-268 = test system: SF-268
SF-295 = test system: SF-295
SF-539 = test system: SF-539
SK-MEL-28 = test system: SK-MEL-28
SK-MEL-2 = test system: SK-MEL-2
SK-MEL-5 = test system: SK-MEL-5
SK-OV-3 = test system: SK-OV-3
SN12C = test system: SN12C
SNB-19 = test system: SNB-19
SNB-75 = test system: SNB-75
SW-620 = test system: SW-620
T47D = test system: T47D
TK-10 = test system: TK-10
U-251 = test system: U-251
UACC-257 = test system: UACC-257
UACC-62 = test system: UACC-62
UO-31 = test system: UO-31
CCRF-CEM = test system: CCRF-CEM
HOP-92 = test system: HOP-92
HT-29 = test system: HT-29
LOX IMVI = test system: LOX IMVI
Malme-3M = test system: Malme-3M
NCI-H23 = test system: NCI-H23
NCI-H522 = test system: NCI-H522
NCI/ADR-RES = test system: NCI/ADR-RES
OVCAR-3 = test system: OVCAR-3
SR = test system: SR

CC(=O)OC[C@H]1CN(OC(C)=O)C[C@@H](n2cc(C)c(=O)[nH]c2=O)O1
GI50 (786-0): > 100 µM (inactive) | GI50 (A498): > 100 µM (inactive) | GI50 (A549): > 100 µM (inactive) | GI50 (ACHN): > 100 µM (inactive) | GI50 (BT-549): > 100 µM (inactive) | GI50 (CAKI-1): > 100 µM (inactive) | GI50 (COLO 205): > 100 µM (inactive) | GI50 (DU-145): > 100 µM (inactive) | GI50 (EKVX): > 100 µM (inactive) | GI50 (HCC 2998): > 100 µM (inactive) | GI50 (HCT-116): > 100 µM (inactive) | GI50 (HCT-15): > 100 µM | GI50 (HL-60): > 100 µM (inactive) | GI50 (HOP-62): > 100 µM (inactive) | GI50 (Hs-578T): > 100 µM (inactive) | GI50 (IGROV-1): > 100 µM (inactive) | GI50 (K562): > 100 µM (inactive) | GI50 (KM12): > 100 µM (inactive) | GI50 (M14): > 100 µM (inactive) | GI50 (MCF7): > 100 µM (inactive) | GI50 (MDA-MB-231): > 100 µM (inactive) | GI50 (MDA-MB-435): > 100 µM (inactive) | GI50 (MDA-N): > 100 µM (inactive) | GI50 (MOLT-4): > 100 µM (inactive) | GI50 (NCI-H226): > 100 µM (inactive) | GI50 (NCI-H460): > 100 µM (inactive) | GI50 (OVCAR-4): > 100 µM (inactive) | GI50 (OVCAR-5): > 100 µM (inactive) | GI50 (OVCAR-8): > 100 µM (inactive) | GI50 (PC-3): > 100 µM (inactive) | GI50 (RPMI-8226): > 100 µM (inactive) | GI50 (RXF 393): > 100 µM (inactive) | GI50 (SF-268): > 100 µM (inactive) | GI50 (SF-295): > 100 µM (inactive) | GI50 (SF-539): > 100 µM (inactive) | GI50 (SK-MEL-28): > 100 µM (inactive) | GI50 (SK-MEL-2): > 100 µM (inactive) | GI50 (SK-MEL-5): > 100 µM (inactive) | GI50 (SK-OV-3): > 100 µM (inactive) | GI50 (SN12C): > 100 µM (inactive) | GI50 (SNB-19): > 100 µM (inactive) | GI50 (SNB-75): 61.5 µM (inactive) | GI50 (SW-620): > 100 µM (inactive) | GI50 (T47D): > 100 µM (inactive) | GI50 (TK-10): > 100 µM (inactive) | GI50 (U-251): > 100 µM (inactive) | GI50 (UACC-257): > 100 µM (inactive) | GI50 (UACC-62): > 100 µM (inactive) | GI50 (UO-31): > 100 µM (inactive)

COc1ccc(C)cc1NC(=S)N/N=C/c1ccc(SC)cc1
GI50 (786-0): 83.6 µM (inactive) | GI50 (A498): > 100 µM (inactive) | GI50 (A549): > 100 µM (inactive) | GI50 (ACHN): > 100 µM (inactive) | GI50 (BT-549): 49.3 µM (inactive) | GI50 (CAKI-1): 47.6 µM (inactive) | GI50 (CCRF-CEM): 54.8 µM (inactive) | GI50 (COLO 205): 40.1 µM (inactive) | GI50 (DU-145): 66.8 µM (inactive) | GI50 (HCT-116): 69.3 µM (inactive) | GI50 (HCT-15): 39.6 µM | GI50 (HL-60): 31.8 µM (inactive) | GI50 (HOP-62): 28.8 µM (inactive) | GI50 (HOP-92): 93.5 µM (inactive) | GI50 (HT-29): 34.1 µM (inactive) | GI50 (Hs-578T): > 100 µM (inactive) | GI50 (IGROV-1): 42.8 µM (inactive) | GI50 (K562): 35.4 µM (inactive) | GI50 (KM12): 67.5 µM (inactive) | GI50 (LOX IMVI): 59.6 µM (inactive) | GI50 (M14): 25.5 µM (inactive) | GI50 (MCF7): > 100 µM (inactive) | GI50 (MDA-MB-435): 38.4 µM (inactive) | GI50 (MDA-N): 36.3 µM (inactive) | GI50 (MOLT-4): 45.4 µM (inactive) | GI50 (Malme-3M): 96.4 µM (inactive) | GI50 (NCI-H23): 50.2 µM (inactive) | GI50 (NCI-H522): 82.2 µM (inactive) | GI50 (NCI/ADR-RES): 60.1 µM (inactive) | GI50 (OVCAR-3): 38.9 µM (inactive) | GI50 (OVCAR-4): 57.8 µM (inactive) | GI50 (OVCAR-5): 25.1 µM (inactive) | GI50 (OVCAR-8): 57.1 µM (inactive) | GI50 (PC-3): 75 µM (inactive) | GI50 (RPMI-8226): 27.9 µM (inactive) | GI50 (RXF 393): 58.5 µM (inactive) | GI50 (SF-268): > 100 µM (inactive) | GI50 (SF-295): 69.5 µM (inactive) | GI50 (SF-539): 27.8 µM (inactive) | GI50 (SK-MEL-28): 86.7 µM (inactive) | GI50 (SK-MEL-2): 55.6 µM (inactive) | GI50 (SK-MEL-5): 21.6 µM (inactive) | GI50 (SK-OV-3): 19.5 µM (inactive) | GI50 (SN12C): > 100 µM (inactive) | GI50 (SNB-19): > 100 µM (inactive) | GI50 (SNB-75): > 100 µM (inactive) | GI50 (SR): 38.5 µM (inactive) | GI50 (SW-620): 53.8 µM (inactive) | GI50 (T47D): 60.7 µM (inactive) | GI50 (UACC-62): > 100 µM (inactive) | GI50 (UO-31): 84.3 µM (inactive)

CCCCn1c(CSc2ccc(Cl)cc2)c(C(=O)OCC)c2cc(OC)c(Br)cc21
GI50 (786-0): > 100 µM (inactive) | GI50 (A498): > 100 µM (inactive) | GI50 (A549): > 100 µM (inactive) | GI50 (ACHN): > 100 µM (inactive) | GI50 (BT-549): > 100 µM (inactive) | GI50 (CAKI-1): 31.5 µM (inactive) | GI50 (CCRF-CEM): > 100 µM (inactive) | GI50 (COLO 205): > 100 µM (inactive) | GI50 (DU-145): > 100 µM (inactive) | GI50 (EKVX): > 100 µM (inactive) | GI50 (HCC 2998): > 100 µM (inactive) | GI50 (HCT-116): > 100 µM (inactive) | GI50 (HCT-15): > 100 µM | GI50 (HL-60): > 100 µM (inactive) | GI50 (HOP-62): > 100 µM (inactive) | GI50 (Hs-578T): > 100 µM (inactive) | GI50 (IGROV-1): > 100 µM (inactive) | GI50 (K562): > 100 µM (inactive) | GI50 (KM12): > 100 µM (inactive) | GI50 (LOX IMVI): > 100 µM (inactive) | GI50 (M14): > 100 µM (inactive) | GI50 (MDA-MB-231): > 100 µM (inactive) | GI50 (MDA-MB-435): > 100 µM (inactive) | GI50 (MDA-N): > 100 µM (inactive) | GI50 (MOLT-4): > 100 µM (inactive) | GI50 (Malme-3M): > 100 µM (inactive) | GI50 (NCI-H226): > 100 µM (inactive) | GI50 (NCI-H23): > 100 µM (inactive) | GI50 (NCI-H460): > 100 µM (inactive) | GI50 (NCI-H522): > 100 µM (inactive) | GI50 (NCI/ADR-RES): > 100 µM (inactive) | GI50 (OVCAR-3): > 100 µM (inactive) | GI50 (OVCAR-4): > 100 µM (inactive) | GI50 (OVCAR-5): > 100 µM (inactive) | GI50 (OVCAR-8): > 100 µM (inactive) | GI50 (PC-3): > 100 µM (inactive) | GI50 (RPMI-8226): > 100 µM (inactive) | GI50 (SF-268): > 100 µM (inactive) | GI50 (SF-295): > 100 µM (inactive) | GI50 (SK-MEL-28): > 100 µM (inactive) | GI50 (SK-MEL-2): > 100 µM (inactive) | GI50 (SK-MEL-5): > 100 µM (inactive) | GI50 (SK-OV-3): > 100 µM (inactive) | GI50 (SN12C): > 100 µM (inactive) | GI50 (SNB-19): > 100 µM (inactive) | GI50 (SNB-75): > 100 µM (inactive) | GI50 (SR): 88.7 µM (inactive) | GI50 (SW-620): > 100 µM (inactive) | GI50 (T47D): > 100 µM (inactive) | GI50 (TK-10): > 100 µM (inactive) | GI50 (U-251): > 100 µM (inactive) | GI50 (UACC-257): > 100 µM (inactive) | GI50 (UACC-62): > 100 µM (inactive) | GI50 (UO-31): > 100 µM (inactive)

— ChEMBL document CHEMBL1201862, “PubChem BioAssay data set” (2004)
